According to PubChem BioAssay AID330 (DTP/NCI, 2004):
Several values for one entry are separate records, joined by “and”; a condition that tells them apart may be missing. Identical values can stand only once. Inconclusive results and toxic doses are left out.

Test system: P388 leukemia ip, CD2F1 mice, survival T/C
Assay: NCI In Vivo Anticancer Drug Screen. Data for tumor model P388 Leukemia (intraperitoneal) in CD2F1 (CDF1) mice
Conditions: endpoint: median survival time, higher = longer survival
Procedure, shortened: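 Mice carrying the transplanted tumor received test compound or vehicle. Survival was recorded in each group, and the value is the treated-group measurement divided by that of the vehicle-treated control group.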

[1] = dose: 50.0 mg/kg/injection, schedule: Q01DX005 (ip), vehicle: saline
[2] = dose: 50.0 mg/kg/injection, schedule: Q01DX009 (ip), vehicle: Klucel (hydroxypropylcellulose) (HPC)
[3] = dose: 100.0 mg/kg/injection, schedule: Q01DX009 (ip), vehicle: Klucel (hydroxypropylcellulose) (HPC)
[4] = dose: 200.0 mg/kg/injection, schedule: Q01DX009 (ip), vehicle: Klucel (hydroxypropylcellulose) (HPC)
[5] = dose: 50.0 mg/kg/injection, schedule: Q01DX005 (ip), vehicle: saline with Tween-80
[6] = dose: 50.0 mg/kg/injection, schedule: Q01DX009 (ip), vehicle: saline
[7] = dose: 50.0 mg/kg/injection, schedule: Q01DX009 (ip), vehicle: saline with Tween-80
[8] = dose: 100.0 mg/kg/injection, schedule: Q01DX009 (ip), vehicle: saline with Tween-80
[9] = dose: 200.0 mg/kg/injection, schedule: Q01DX009 (ip), vehicle: saline with Tween-80
[10] = dose: 60.0 mg/kg/injection, schedule: Q01DX005 (ip), vehicle: saline with Tween-80
[11] = dose: 120.0 mg/kg/injection, schedule: Q01DX005 (ip), vehicle: saline with Tween-80
[12] = dose: 240.0 mg/kg/injection, schedule: Q01DX005 (ip), vehicle: saline with Tween-80
[13] = dose: 6.25 mg/kg/injection, schedule: Q01DX009 (ip), vehicle: saline
[14] = dose: 12.5 mg/kg/injection, schedule: Q01DX009 (ip), vehicle: saline
[15] = dose: 25.0 mg/kg/injection, schedule: Q01DX009 (ip), vehicle: saline
[16] = dose: 12.5 mg/kg/injection, schedule: Q01DX009 (ip), vehicle: saline with Tween-80
[17] = dose: 25.0 mg/kg/injection, schedule: Q01DX009 (ip), vehicle: saline with Tween-80
[18] = dose: 6.25 mg/kg/injection, schedule: Q01DX009 (ip), vehicle: saline with Tween-80
[19] = dose: 50.0 mg/kg/injection, schedule: Q01DX005 (ip), vehicle: Klucel (hydroxypropylcellulose) (HPC)
[20] = dose: 200.0 mg/kg/injection, schedule: Q01DX005 (ip), vehicle: Klucel (hydroxypropylcellulose) (HPC)

CN(C)CCC=C1c2ccccc2C=Cc2ccccc21
T/C (dose: 12.5 mg/kg/injection, schedule: Q01DX005 (ip), vehicle: saline): 103 % of control
T/C (dose: 25.0 mg/kg/injection, schedule: Q01DX005 (ip), vehicle: saline): 95 % of control
T/C [1]: 112 % of control

O=C(C(Br)(Br)Br)C(Br)(Br)c1ccccc1
T/C [2]: 101 % of control
T/C [3]: 101 % of control
T/C [4]: 99 % of control

O=C1C=CC(=O)N1c1ccc(-c2nc3ccccc3o2)cc1
T/C (dose: 6.25 mg/kg/injection, schedule: Q01DX005 (ip), vehicle: saline with Tween-80): 109 % of control
T/C (dose: 12.5 mg/kg/injection, schedule: Q01DX005 (ip), vehicle: saline with Tween-80): 109 % of control
T/C (dose: 25.0 mg/kg/injection, schedule: Q01DX005 (ip), vehicle: saline with Tween-80): 109 % of control and 111 % of control
T/C [5]: 111 % of control

O=C(Nc1cccc(C(F)(F)F)c1)Oc1ccc(Cl)cc1C(=O)c1ccccc1
T/C [6]: 97 % of control
T/C (dose: 100.0 mg/kg/injection, schedule: Q01DX009 (ip), vehicle: saline): 92 % of control
T/C (dose: 200.0 mg/kg/injection, schedule: Q01DX009 (ip), vehicle: saline): 96 % of control

Cc1nn(C(=O)c2ccncc2)c(C)c1N=Nc1cccc([N+](=O)[O-])c1
T/C (dose: 100.0 mg/kg/injection, schedule: Q04DX003 (ip), vehicle: saline): 89 % of control
T/C (dose: 200.0 mg/kg/injection, schedule: Q04DX003 (ip), vehicle: saline): 93 % of control

C1N2CN3CN1CN(C2)C3
T/C [1]: 95 % of control
T/C (dose: 100.0 mg/kg/injection, schedule: Q01DX005 (ip), vehicle: saline): 101 % of control
T/C (dose: 200.0 mg/kg/injection, schedule: Q01DX005 (ip), vehicle: saline): 96 % of control

C=CCNC(=S)Nc1sc(C)c(C)c1C(=O)OCC
T/C [7]: 100 % of control
T/C [8]: 100 % of control
T/C [9]: 97 % of control

[N-]=[N+]=Nc1cc(-c2ccccc2)nc2cc3c(cc12)OCO3
T/C [10]: 97 % of control
T/C [11]: 105 % of control
T/C [12]: 108 % of control

Oc1cc2c(cc1C(c1ccc(Cl)cc1)N1CCCCC1)OCO2 (stereo not drawn)
T/C [10]: 117 % of control
T/C [11]: 118 % of control
T/C [12]: 119 % of control

O=C(O)c1ccccc1Nc1c(C(=O)O)cnc2cc3c(cc12)OCO3
T/C (dose: 60.0 mg/kg/injection, schedule: Q01DX005 (ip), vehicle: Klucel (hydroxypropylcellulose) (HPC)): 101 % of control
T/C (dose: 120.0 mg/kg/injection, schedule: Q01DX005 (ip), vehicle: Klucel (hydroxypropylcellulose) (HPC)): 99 % of control
T/C (dose: 240.0 mg/kg/injection, schedule: Q01DX005 (ip), vehicle: Klucel (hydroxypropylcellulose) (HPC)): 88 % of control

O=C1OC(c2ccc(Cl)cc2)Sc2ccccc21 (stereo not drawn)
T/C (dose: 25.0 mg/kg/injection, schedule: Q04DX003 (ip), vehicle: saline with Tween-80): 102 % of control
T/C (dose: 50.0 mg/kg/injection, schedule: Q04DX003 (ip), vehicle: saline with Tween-80): 93 % of control
T/C (dose: 100.0 mg/kg/injection, schedule: Q04DX003 (ip), vehicle: saline with Tween-80): 102 % of control
T/C (dose: 200.0 mg/kg/injection, schedule: Q04DX003 (ip), vehicle: saline with Tween-80): 100 % of control

O=C(N/N=C\c1ccc(O)cc1O)C(=O)N/N=C\c1ccc(O)cc1O
T/C [2]: 98 % of control
T/C [3]: 105 % of control
T/C [4]: 100 % of control

NS(=O)(=O)C1CCCCC1
T/C (dose: 3.13 mg/kg/injection, schedule: Q01DX009 (ip), vehicle: saline): 106 % of control
T/C [13]: 99 % of control
T/C [14]: 106 % of control
T/C [15]: 106 % of control

CCN(N=Nc1ccc(OC)cc1)c1ccc(OC)cc1
T/C [16]: 103 % of control and 96 % of control
T/C [17]: 108 % of control and 109 % of control
T/C [7]: 116 % of control and 117 % of control
T/C [8]: 100 % of control and 124 % of control

O=C1c2ccccc2C(=O)C1(Br)c1ccc(Cl)cc1
T/C (dose: 100.0 mg/kg/injection, schedule: Q04DX002 (ip), vehicle: saline with Tween-80): 96 % of control
T/C (dose: 200.0 mg/kg/injection, schedule: Q04DX002 (ip), vehicle: saline with Tween-80): 101 % of control
T/C (dose: 400.0 mg/kg/injection, schedule: Q04DX002 (ip), vehicle: saline with Tween-80): 99 % of control

NC1C(N)C(N)C1N (stereo not drawn)
T/C (dose: 12.5 mg/kg/injection, schedule: Q01DX005 (ip), vehicle: water): 102 % of control
T/C (dose: 25.0 mg/kg/injection, schedule: Q01DX005 (ip), vehicle: water): 102 % of control
T/C (dose: 50.0 mg/kg/injection, schedule: Q01DX005 (ip), vehicle: water): 102 % of control
T/C (dose: 100.0 mg/kg/injection, schedule: Q01DX005 (ip), vehicle: water): 98 % of control
T/C (dose: 200.0 mg/kg/injection, schedule: Q01DX005 (ip), vehicle: water): 94 % of control

FC(F)(F)c1ccc(-c2ccc(OCCN3CCCC3)cc2)cc1
T/C [16]: 86 % of control
T/C [17]: 86 % of control
T/C [7]: 86 % of control
T/C (dose: 50.0 mg/kg/injection, schedule: Q04DX003 (ip), vehicle: saline sonified): 87 % of control

COc1ccc(/C=C2/SC(=S)N(Cc3ccco3)C2=O)cc1
T/C [18]: 100 % of control
T/C [16]: 91 % of control
T/C [9]: 86 % of control

C=C1C(=O)OC2C1C(OC(=O)/C(C)=C/C)CC1(CO1)C1C(O)C3OC3(C)C21O (stereo not drawn)
T/C (dose: 25.0 mg/kg/injection, schedule: Q04DX002 (ip), vehicle: saline with Tween-80): 117 % of control
T/C (dose: 50.0 mg/kg/injection, schedule: Q04DX002 (ip), vehicle: saline with Tween-80): 117 % of control

CCc1c(-c2ccc(Cl)cc2)nc(N)nc1-c1nc(N)nc(-c2ccc(Cl)cc2)c1CC
T/C (dose: 60.0 mg/kg/injection, schedule: Q01DX005 (ip), vehicle: saline): 100 % of control
T/C (dose: 120.0 mg/kg/injection, schedule: Q01DX005 (ip), vehicle: saline): 100 % of control

O=C(CO)c1ccc([N+](=O)[O-])cc1
T/C (dose: 1.56 mg/kg/injection, schedule: Q01DX009 (ip), vehicle: saline with Tween-80): 99 % of control
T/C (dose: 3.13 mg/kg/injection, schedule: Q01DX009 (ip), vehicle: saline with Tween-80): 101 % of control
T/C [18]: 106 % of control
T/C [16]: 116 % of control

CC(C)N(Cc1ccccc1)S(=O)(=O)c1n[nH]c(C(C)(C)C)n1
T/C [5]: 94 % of control
T/C (dose: 100.0 mg/kg/injection, schedule: Q01DX005 (ip), vehicle: saline with Tween-80): 86 % of control

COc1ccc2cc3[n+](cc2c1O)CCc1cc2c(cc1-3)OCO2
T/C (dose: 6.25 mg/kg/injection, schedule: Q01DX005 (ip), vehicle: Klucel (hydroxypropylcellulose) (HPC)): 99 % of control and 106 % of control
T/C (dose: 12.5 mg/kg/injection, schedule: Q01DX005 (ip), vehicle: Klucel (hydroxypropylcellulose) (HPC)): 107 % of control and 96 % of control
T/C (dose: 25.0 mg/kg/injection, schedule: Q01DX005 (ip), vehicle: Klucel (hydroxypropylcellulose) (HPC)): 101 % of control and 117 % of control
T/C [19]: 111 % of control
T/C [20]: 179 % of control

CC1C(c2ccccc2)NC(c2ccccc2)C(C)C1O (stereo not drawn)
T/C [19]: 101 % of control
T/C (dose: 100.0 mg/kg/injection, schedule: Q01DX005 (ip), vehicle: Klucel (hydroxypropylcellulose) (HPC)): 98 % of control
T/C [20]: 105 % of control

CC1OC(OC2C(Oc3ccc4c(=O)c(-c5ccc(O)c(O)c5O)coc4c3)OC(CO)C(O)C2O)C(O)C(O)C1O (stereo not drawn)
T/C [10]: 103 % of control
T/C [11]: 101 % of control
T/C [12]: 103 % of control

CO[C@@]12[C@H](COC(N)=O)C3=C(C(=O)C(C)=C(N)C3=O)N1C[C@H]1[C@@H]2N1C(=O)[C@@H]1N2C(=O)[C@@H](NC(=O)Cc3ccccc3)[C@H]2SC1(C)C
T/C [13]: 116 % of control
T/C [14]: 155 % of control
T/C [15]: 155 % of control
T/C [6]: 165 % of control

C[CH2][Pb]([CH2]C)([CH2]C)[O]C(=O)CBr
T/C (dose: 2.0 mg/kg/injection, schedule: Q01DX009 (ip), vehicle: saline): 111 % of control
T/C (dose: 3.0 mg/kg/injection, schedule: Q01DX009 (ip), vehicle: saline): 117 % of control
T/C (dose: 4.5 mg/kg/injection, schedule: Q01DX009 (ip), vehicle: saline): 119 % of control
